Test results taken from patent US7442532B2, “Essential fungal CaYLR100w polypeptides, and methods of use” (Bristol-Myers Squibb Company, priority 2003, dated 2008).
Converted amounts (≈) assume the structure as drawn.

Assays:
[1] = tested on: MET3P-ERG1 construct; assay: Sensitivity of the MET3P-ERG1 construct to antifungal drugs (MICs, 96-well format plate); type: cell-based, Candida albicans; conditions: for MIC: Candida albicans, at 20 hrs, MET3P-ERG1 construct; for sensitivity to the drug altered by the presence of methionine: drugs not known to be inhibitors of the CaERG1 product
Experimental: In order to assess whether cells containing the ERG1−MET promoter construct would display hypersensitivity to terbinafine upon the addition of methionine in comparison to cells for which no methionine was added, cells were grown in the 384 well-plate as described above. A final concentration of 0.05 mM methinone was added to wells within one plate of cells and a control plate, in which SD+His broth was added in lieu of methionine was added to a second plate. 8 μl of various concentrations of terbinafine in 10.26% DMSO was added to both the control and test plates. The concentrations of terbinafine added to different wells ranged from 163 μg/ml to 0.02 μg/ml. […] After the addition of this inhibitor, both the control and experimental plates were incubated at 35° C. After 18 hours of incubation, the OD readings were taken of the plates to measure cell growth (595 nm). […] Increased sensitivity of cells containing the ERG1−MET3 was confirmed in a separate experiment using a 96-well format plate.
Furthermore, results of additional experiments conducted with the drugs sordarin and fluconazole which are not known to be inhibitors of the CaERG1 polynucleotide product confirm that sensitivity to these drugs is not altered by the presence of methionine.

[2] = tested on: ergosterol biosynthetic pathway in strain fcg5Δ/PMET3-FCG5; assay: Incorporation of labeled acetate into sterols (TLC, scintillation counting), test strain; type: cell-based, Candida albicans; conditions: FIG. 22B; majority of the counts trapped in squalene
Experimental: (§1) Overnight cultures were diluted into fresh SD+histidine (His) broth and grown at 30° C. until logarithmic growth was established. Cultures were harvested by centrifugation. Cells were then separated into tubes at a final density of 0.25 OD600 containing either fresh SD+His broth or SD+His broth containing 5 mM methionine (Met) and 2.5 mM cysteine (Cys). At the end of either a 0.75, 1.5, 3 or 4.5 hour incubation period, the OD600 values of each tube were measured and cultures were adjusted to a density of 0.25 OD600 units per ml (2 mls per tube). Cultures were then pulsed with 2 μCi/tube of [^3H]-acetic acid for 60 minutes.
(§2) At the end of the labeling period, cells were pelleted and rinsed 1× with medium. The washed pellet was resuspended with 1 ml of 0.1 N HCl, transferred to glass screw-capped tubes, and incubated for 5 minutes at 85° C. […]
(§3) Dried samples were disolved in petroleum ether and spotted onto a 20 cm×20 cm silica gel 60 TLC plate. […] The location of radiolabeled spots on the TLC plate was determined by matching the exposed spots on the autoradiogram.
(§4) In order to quantitate the radioactivity associated with the ergosterol pathway products, the silica gel corresponding to the exposed spots was excised from the plate and mixed with 0.5 ml of water, then mixed with 5 mls of scintillation cocktail prior to scintillation counting. […]

[3] = tested on: ergosterol biosynthetic pathway in strain caerg1Δ/PMET3-CaERG1; assay: Incorporation of labeled acetate into sterols (TLC, scintillation counting), control strain; type: cell-based, Candida albicans; conditions: FIG. 22A, lanes 1 and 2; 90 minute induction period
Experimental: as §1, §2, §3, §4

[4] = tested on: MET3 promoter-CaERG1 cells; assay: Drug hypersensitivity whole cell assay, 384-well plate: MET3 promoter-CaERG1 cells with and without methionine; type: cell-based, Candida albicans; conditions: 0.05 mM methionine, 18 hours at 35° C, OD 595 nm, FIG. 10
Experimental: In order to determine if essential polynucleotide products could be reduced in fungal cells resulting in drug hypersensitivity, a high throughput whole cell assay was designed. The known C. albicans essential polynucleotide corresponding ERG1 polynucleotide in S. cervisiae was tested. CaERG 1 codes for squaline epoxidase and is known to be inhibited by terbinafine. The first polynucleotide copy was disrupted as described above and the second polynucleotide copy was modified by promoter swapping with MET3 promoter, also as described above.
The optimal cell density needed to control cell growth in a 384-well plate within the log phase after 18 hours incubation at 35° C. was first determined. […] At different time intervals, the plate was withdrawn from the incubator and the cell growth was determined by reading absorbance at 590 nm on a Perkin Elmer 7000 machine.
In order to assess whether cells containing the ERG1−MET promoter construct would display hypersensitivity to terbinafine upon the addition of methionine in comparison to cells for which no methionine was added, cells were grown in the 384 well-plate as described above. […] After 18 hours of incubation, the OD readings were taken of the plates to measure cell growth (595 nm). […]

[5] = tested on: MET3P-ERG1 construct; conditions: 0.5 mM methionine; growth monitored between 16 and 24 hours, OD 595 nm; FIG. 9
Experimental: Cells were diluted from these cultures to 757,002 cfu/ml in SD+His medium. 35 μl of the diluted cells were dispensed into wells of a 384-well plate containing 8 μl of 10.26% DMSO. […] Cell growth was monitored between 16 and 24 hours by reading the optical density at 595 nm.

Row | Compound | MIC ([1]; absence of methionine) [µg/mL] | MIC ([1]; presence of methionine) [µg/mL] | sensitivity to the drug altered by the presence of methionine [1] | effect on incorporation of radiolabelled acetate into ergosterol (TLC autoradiogram) [2] | increase in sensitivity when promoter activity was down regulated by the presence of methionine ([1]; 96-well format plate, Table 7) | effect on ergosterol biosynthesis (TLC autoradiogram) [3] | increase in sensitivity in the presence of methionine comparing to the no methionine control [4] | reduction of cell growth [5]
1 | OC(Cn1cncn1)(Cn1cncn1)c1ccc(F)cc1F [Fluconazole] | 1 (≈ 3.27 µM) | 1 | not altered | – | – | – | – | –
2 | CO[C@H]1[C@@H](O)[C@H](O)[C@H](OC[C@@]23C[C@@H]4[C@H](C)CC[C@H]4[C@@]4(C=O)CC2C=C(C(C)C)[C@@]34C(=O)O)O[C@@H]1C [Sordarin] | 0.5 (≈ 1.02 µM) | 0.5 | not altered | – | – | – | – | –
3 | CN(C/C=C/C#CC(C)(C)C)Cc1cccc2ccccc12 [Terbinafine] | – | 0.5 | – | blocked the incorporation of radiolabelled acetate into ergosterol | 16-32 fold | a block in ergosterol biosynthesis at squalene | 4-8 fold | –
4 | CSCC[C@H](N)C(=O)O [methionine] | – | – | – | – | – | – | – | approximately 50%
